Experimental data taken from PubChem BioAssay (NCI).
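Step 1: Grow cells in 96-well plates. Step 2: Expose to compound for 48 hours at 5 concentrations. Step 3: Interpolate endpoints linearly; if unreached, use highest concentration. TGI: concentration producing complete growth inhibition.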

Experiments:
Assay in all cases: growth of human tumour cells (NCI), 48 h
MDA-MB-435 = test system: MDA-MB-435
SK-MEL-2 melanoma = test system: SK-MEL-2 melanoma
SNB-75 CNS = test system: SNB-75 CNS
SF-268 CNS = test system: SF-268 CNS
SF-295 CNS = test system: SF-295 CNS
SR leukemia = test system: SR leukemia
UACC-62 melanoma = test system: UACC-62 melanoma
MCF7 breast = test system: MCF7 breast
NCI-H522 lung = test system: NCI-H522 lung
SK-MEL-5 melanoma = test system: SK-MEL-5 melanoma
786-0 renal = test system: 786-0 renal

| Compound | TGI (MDA-MB-435) [µM] | TGI (SK-MEL-2 melanoma) [µM] | TGI (SNB-75 CNS) [µM] | TGI (SF-268 CNS) [µM] | TGI (SF-295 CNS) [µM] | TGI (SR leukemia) [µM] | TGI (UACC-62 melanoma) [µM] | TGI (MCF7 breast) [µM] | TGI (NCI-H522 lung) [µM] | TGI (SK-MEL-5 melanoma) [µM] | TGI (786-0 renal) [µM] |
| --- | --- | --- | --- | --- | --- | --- | --- | --- | --- | --- | --- |
| CSc1ccc(/C=C2\N=C(c3ccccc3)N(NC(=O)c3c(Cl)c(Cl)c(Cl)c(Cl)c3-c3nc4ccccc4[nH]3)C2=O)cc1 | 19.7 | > 100 | 46.6 | > 100 | > 100 | > 100 | 59 | > 100 | > 100 | > 100 | > 100 |
| CC(=O)OC1=C(c2ccccc2)S(=O)(=O)c2ccccc21 | > 100 | > 100 | > 100 | > 100 | > 100 | > 100 | > 100 | > 100 | > 100 | > 100 | > 100 |
| CC(C)CCNC(=O)c1ccc(CNC(=O)/C=C/c2ccc3c(c2)-c2ccccc2C3)cc1 | > 100 | > 100 | 53.3 | > 100 | > 100 | > 100 | > 100 | > 100 | > 100 | > 100 | 81.1 |
| C[N+](C)(C)CC(=O)N/N=C\c1c(O)ccc2ccccc12 | > 100 | > 100 | 71.1 | 69.8 | > 100 | > 100 | > 100 | > 100 | 53.6 | 39.3 | > 100 |
| O=C(O)CN1CCN2CCOCCN(CC1)CCN(CC(=O)O)CC2 | > 100 | > 100 | > 100 | > 100 | > 100 | > 100 | > 100 | > 100 | > 100 | > 100 | > 100 |
| CCO/C=N\C1=C(C#N)SC2=N/C(=C\c3ccco3)C(=O)N21 | > 100 | > 100 | > 100 | > 100 | > 100 | > 100 | – | > 100 | > 100 | > 100 | > 100 |
| C=C1C(=O)O[C@H]2[C@@H]3O[C@@](C)(CC/C=C(\C)CCC[C@@H]2C)[C@H](O)C[C@@H]13 | 53.6 | 27 | 30.7 | > 100 | 27.8 | > 100 | 20.9 | 15.6 | 5.67 | 6.36 | 16.2 |
| O=C(NNC(=O)c1cc2ccccc2[nH]1)c1cc2ccccc2[nH]1 | > 100 | > 100 | > 100 | > 100 | > 100 | > 100 | > 100 | > 100 | > 100 | > 100 | > 100 |
| O=[N+]([O-])C1=Cc2c(O)ccc(O)c2C2c3ccccc3NC12 (stereo unspecified) | 28.6 | 40.1 | > 61.3 | 36.6 | 31.5 | > 64.3 | 22.7 | 11.8 | 5.48 | 27.6 | 24.7 |
| Nc1nc(NCc2ccccc2)cc(NCc2ccccc2)n1 | 18.9 | 31.2 | 13.1 | 19.3 | 69 | > 100 | 16.5 | 6.36 | 19.2 | 19.7 | 22.5 |
| COc1ccccc1Nc1nc(N)nc(N)c1N | 82.6 | > 100 | > 100 | > 100 | 68.5 | 45.6 | > 100 | > 100 | 67 | > 100 | > 100 |
| O=C1/C(=C/c2ccc(Cl)cc2)NC(=S)N1CN1CCCCC1 | > 100 | > 100 | > 100 | 78.8 | > 100 | > 100 | 54.4 | 82.1 | 49.3 | 97.4 | > 100 |
| CC(=O)OCC1OC(Sc2nc(-c3ccccc3)c(C#N)c(=O)n2C2OC(COC(C)=O)C(OC(C)=O)C(OC(C)=O)C2OC(C)=O)C(OC(C)=O)C(OC(C)=O)C1OC(C)=O (stereo unspecified) | > 100 | > 100 | > 100 | > 100 | > 100 | > 100 | > 100 | > 100 | > 100 | > 100 | > 100 |
| COc1cc(CCNC2=CC(=O)c3ncccc3C2=O)ccc1O | 2.84 | 9.79 | 4.73 | 47.4 | 4.02 | 38.7 | 3.8 | 6.06 | 10.3 | 1.84 | 18.1 |
| NS(=O)(=O)c1ccc(NCc2cccc3c(=O)c4ccc(Cl)cc4oc23)cc1 | > 100 | > 100 | > 96.6 | 64.4 | > 100 | > 51.3 | > 100 | > 67 | 99.7 | > 100 | > 100 |
| CCOC(=O)n1c(=O)nc2c3c(ncn21)Oc1c(c(-c2ccccc2)nn1-c1ccccc1)C3c1ccc(Cl)cc1 (stereo unspecified) | 3.03 | 3.23 | 4.75 | 2.92 | 3.26 | 3.5 | 3.1 | 2.9 | 3.11 | 3.07 | 2.85 |
| CC(C)=CCN1c2ccccc2[C@@]2(CC=C(C)C)CCN(C)[C@@H]12 | 54.3 | 33.3 | > 100 | > 100 | 46.6 | > 100 | 34.8 | 34.4 | 39.9 | 33.2 | 53 |
